Laboratory results published in patent publication US20160361288A1, “PHARMACEUTICAL COMPOSITIONS FOR PREVENTING OR TREATING DIABETIC N[…] ACTIVITY INHIBITOR OF TENC1” (POSTECH ACADEMY-INDUSTRY FOUNDATION, priority 2015, published 2016).

Key:
differentiated podocyte = assay: Filtration function of differentiated podocyte under high glucose (protein quantification); format: cell-based; conditions: high glucose condition of 30 mmol/L vs normal glucose 5 mmol/L; FIG. 11B
TENC1 = molecular target: T1, TENC1 (Homo sapiens, UniProt Q63HR2, P1246L); assay: Malachite Green assay screening for TENC1 inhibitor (PTPase activity of TENC1); format: biochemical; conditions: TENC1 protein isolated from cells, compared with control; FIG. 8
T1 construct: made in house; host or cells: cells (type not specified)
T1 sequence (Q63HR2 1-1409 P1246L): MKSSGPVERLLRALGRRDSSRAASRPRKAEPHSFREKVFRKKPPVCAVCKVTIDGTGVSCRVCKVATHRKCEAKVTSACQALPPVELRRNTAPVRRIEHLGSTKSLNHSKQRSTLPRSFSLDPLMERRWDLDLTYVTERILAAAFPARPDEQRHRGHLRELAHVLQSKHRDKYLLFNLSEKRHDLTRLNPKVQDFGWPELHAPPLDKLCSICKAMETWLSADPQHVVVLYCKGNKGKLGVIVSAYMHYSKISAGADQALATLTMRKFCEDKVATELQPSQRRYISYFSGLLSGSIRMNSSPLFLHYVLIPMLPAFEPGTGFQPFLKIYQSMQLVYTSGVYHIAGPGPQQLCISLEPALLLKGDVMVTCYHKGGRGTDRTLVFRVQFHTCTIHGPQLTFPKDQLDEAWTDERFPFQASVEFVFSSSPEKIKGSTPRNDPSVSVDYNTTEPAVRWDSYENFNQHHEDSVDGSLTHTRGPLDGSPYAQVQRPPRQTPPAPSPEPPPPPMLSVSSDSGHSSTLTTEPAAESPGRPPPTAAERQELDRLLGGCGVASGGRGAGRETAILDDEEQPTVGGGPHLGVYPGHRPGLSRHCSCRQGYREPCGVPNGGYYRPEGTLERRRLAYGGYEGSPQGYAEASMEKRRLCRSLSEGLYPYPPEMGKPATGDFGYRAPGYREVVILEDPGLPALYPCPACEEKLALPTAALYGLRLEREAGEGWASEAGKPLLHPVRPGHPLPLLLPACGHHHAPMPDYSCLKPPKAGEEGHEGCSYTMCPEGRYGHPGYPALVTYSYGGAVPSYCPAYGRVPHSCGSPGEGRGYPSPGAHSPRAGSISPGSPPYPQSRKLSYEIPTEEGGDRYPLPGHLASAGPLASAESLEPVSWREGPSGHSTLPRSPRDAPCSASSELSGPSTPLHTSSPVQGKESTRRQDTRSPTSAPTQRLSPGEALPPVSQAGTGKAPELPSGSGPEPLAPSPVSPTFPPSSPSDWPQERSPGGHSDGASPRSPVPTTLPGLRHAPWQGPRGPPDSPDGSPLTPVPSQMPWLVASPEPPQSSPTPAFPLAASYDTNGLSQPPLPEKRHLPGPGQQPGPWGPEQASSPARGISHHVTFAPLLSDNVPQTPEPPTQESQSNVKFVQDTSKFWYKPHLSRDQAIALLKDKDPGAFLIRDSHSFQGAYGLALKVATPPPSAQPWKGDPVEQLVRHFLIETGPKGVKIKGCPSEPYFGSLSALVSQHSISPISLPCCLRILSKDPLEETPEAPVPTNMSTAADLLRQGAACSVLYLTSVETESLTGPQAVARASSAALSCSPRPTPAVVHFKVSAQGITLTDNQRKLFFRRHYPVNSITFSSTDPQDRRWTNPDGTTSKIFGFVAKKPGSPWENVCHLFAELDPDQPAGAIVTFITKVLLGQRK
Method: According to the above results, it was confirmed that TENC1 overexpressed in a high glucose environment known as a leading cause of diabetic nephropathy inhibits phosphorylation of nephrin caused by dephosphorylation, and induces hypertrophy of the podocyte cell line. For this reason, to inhibit the hypertrophy of the podocyte cell line, screening was performed through a Malachite Green assay for finding a TENC1 inhibitor.
TENC1 protein isolated from the cells and each of the natural product library candidate compounds were put together for a predetermined time, and the PTPase activity of TENC1 was measured. […] Here, as a positive control, a PTPase inhibitor, sodium vanadate (Na3VO4; NAV) was used. Since there were almost no molecules left in the test tube, the method has a higher probability of discovering a direct regulator, compared with a cellular-level screening method.

db/db mouse = assay: Diabetic nephropathy animal model, db/db mouse (fasting serum glucose, kidney weight, proteinuria); format: in vivo; conditions: 300 mg/kg orally daily for 2 weeks
Method: (§1) An effect of DHTS, which is the representative material of the TENC1 inhibitors found through the screening described in Example 5, was identified using a diabetic nephropathy animal model. To this end, as a diabetic nephropathy animal model, a type II diabetic model, that is, a db/db mouse was used, and as a control, a db/m mouse was used. 10 week-old male db/m and db/db mice were divided into three groups including a group in which a vehicle was administered to a db/m mouse, a group in which a vehicle was administered to a db/db mouse, and a group in which 300 mg/kg of DHTS was administered to a db/db mouse for experiments, and the vehicle or drug was orally administered daily for 2 weeks according to each condition. As the vehicle, 1% carboxymethyl cellulose was used.
First, after the experiment described above, blood was taken from a mouse to measure a fasting serum glucose level. As a result, referring to FIG. 9, it was confirmed that the fasting serum glucose level was not decreased by the administration of DHTS for two weeks.
Therefore, it was confirmed that DHTS can improve the renal hypertrophy.

nephrin = assay: Nephrin phosphorylation in kidney tissue of db/db mouse (immunoprecipitation); format: in vivo; conditions: 300 mg/kg orally daily for 2 weeks, FIG. 12
Method: as §1
(§2) Further, to investigate whether the above result is obtained by inhibiting TENC1-induced nephrin dephosphorylation and increased mTORC1 signaling, immunoprecipitation and western blotting were performed with a kidney tissue sample extracted from a mouse.

mTORC1 signaling = mTORC1 signaling (S6K phosphorylation) in kidney tissue of db/db mouse (western blotting); format: in vivo; conditions: 300 mg/kg orally daily for 2 weeks, FIG. 13
Method: as §1, §2

With `Cc1cccc2c3c(ccc12)C1=C(C(=O)C3=O)[C@@H](C)CO1` [DHTS, (1R)-1,6-dimethyl-1,2-dihydronaphtho[1,2-g][1]benzofuran-10,11-dione] the “filtration function of the podocyte” value (differentiated podocyte) was “improved to a level similar to the result obtained under a the normal glucose condition”, the “inhibitory effect on the PTPase activity of TENC1” value (TENC1) was “inhibitory effect” and the “fasting serum glucose level” value (db/db mouse; FIG. 9) was “not decreased”. The “proteinuria (albumin ELISA)” value (db/db mouse; compared with vehicle db/db mouse, FIG. 11A) was “significantly reduced”, the “kidney weight (renal hypertrophy; ratio of kidney weight to body weight)” value (db/db mouse; vs vehicle db/db and db/m, FIG. 10) was “such an increase was not shown” and the “nephrin phosphorylation in kidney tissue” value (nephrin) was “recovered”. The “S6K phosphorylation (pS6K) in kidney tissue” value (mTORC1 signaling) was “effectively inhibited”.
